Paper PMC8116058, “De novo macrocyclic peptides dissect energy coupling of a heterodimeric ABC transporter by multimode allosteric inhibition” (eLife, 2021)
Positions of bridges follow the written chain, without caps; N, C: chain ends. Non-standard residues stand in square brackets, D forms with d. Residues, ends and D or L forms follow the SMILES beside them. *: point of attachment. 5FAM = O=C1OC2(c3ccc(O)cc3Oc3cc(O)ccc32)c2ccc(C(=O)*)cc21; βAla = NCCC(=O)O

Experiments:
TmrAB in liposomes = assay: ATP hydrolysis assay; type: biochemical, Thermus thermophilus; settings: TmrAB in liposomes 100 nM; ATP 2 mM; CP^F 1 µM; 10 min 45°C; without CP 1.49, autohydrolysis 0.62
Excerpt: In order to investigate the functional impact of CPs, we examined the effect of the CPs on ATP hydrolysis and substrate transport of TmrAB (Figure 3A). We reconstituted TmrAB in liposomes and first assayed the ATPase activity. […] We next set out to investigate peptide transport by TmrAB using a filter-based transport assay. To investigate whether CPs are recognized as substrates by TmrAB, we added fluorescein-labeled CP^Fs and examined ATP-dependent translocation. In contrast to the linear substrate peptide C4F, none of the CP^Fs were transported by TmrAB (Figure 3C). Next, we examined ATP-dependent transport of C4F peptides in the presence and absence of the different CPs.
Figure 3. CP^Fs are potent inhibitors of ATP turnover and substrate transport. (A) Experimental scheme of ATP hydrolysis and peptide transport by TmrAB. (B) CP^Fs inhibit ATP hydrolysis. TmrAB in liposomes (100 nM) was incubated with ATP (2 mM, traced with [γ^32P]-ATP), and MgCl2 (5 mM) in the presence and absence of CP^Fs (1 µM) for 10 min at 45°C. Autohydrolysis was determined in the absence of TmrAB, and background turnover was conducted in the presence of EDTA (10 mM). Release of [γ^32P] was quantified by thin layer chromatography. (C) CP^Fs are not transported by TmrAB. TmrAB (0.4 µM) reconstituted in liposomes was incubated with C4F peptide (3 µM) or CP^Fs (1 µM) in the presence of ATP/ADP (3 mM) and MgCl2 (5 mM) for 5 min at 45°C. Since CP^Fs were dissolved in maximal 0.5% (v/v) of DMSO, C4F plus 0.5% DMSO served as control. Proteoliposomes were washed on filter plates, and transported peptides were quantified at λex/em = 485/520 nm. (D) Inhibition of substrate translocation. TmrAB in liposomes (0.4 µM) were incubated with C4F peptide (3 µM), ATP/ADP (3 mM), and MgCl2 (5 mM) in the presence and absence of CP^Fs (1 µM) for 15 min at 45°C. Transported peptides were quantified as described in (C). In (B–C), mean values ± SD (n = 3) are shown. Figure 3—source data 1. Source data for Figure 3.
TmrAB reconstituted in liposomes (100 nM) were incubated with ATP (2 mM) traced with [γ^32P]-ATP (Hartmann Analytic), ouabain (1 mM), NaN3 (5 mM), EGTA (50 µM), MgCl2 (3 mM), and CP^Fs (1 µM) for 10 min at 45°C. Autohydrolysis and background hydrolysis were examined in the absence of proteoliposomes or the presence of EDTA (10 mM). Samples were spotted onto polyethyleneimine cellulose plates (Merck Millipore), and thin-layer chromatography was performed with 0.8 M LiCl-acetic acid pH 3.2. Plates were developed overnight on Exposure Cassette-K (Bio-Rad) and evaluated on Personal Molecular Imager System (Bio-Rad). Data were recorded in triplicates and the mean values ± SD (n = 3) are shown.

[1] = test system: wild-type TmrAB in liposomes; assay: Single-liposome flow cytometry transport assay; type: biochemical, Thermus thermophilus; settings: for Peptides/liposome, time course / Mean fluorescence intensity * 10^3, time course / Transported C4^ATTO655, Peptides/liposome: C4^ATTO655 1 µM; for Peptides/liposome, time course: corrected by ADP background; for Peptide transport in two successive IF-to-OF cycles: 5 min 45°C / 60 min 4°C, repeated; for Transported C4^ATTO655, Peptides/liposome: TmrAB 0.4 µM, ATP 3 mM, ATP without CP 84.57, ADP 3.52; for Peptides/liposome, two consecutive transport cycles: ADP background corrected
Description: To investigate whether an IF-to-OF transition and conformational arrest by CP13^F or CP14^F can still result in a productive substrate translocation, we followed peptide transport by wild-type TmrAB by single liposome-based flow cytometry (Figure 6A). […] CPs block multiple-turnover transport monitored by quantitative flow cytometry. (A) Single turnover by IF-to-OF switch monitored by single-liposome flow cytometry. […] Transport reactions were stopped by the addition of EDTA (10 mM). 100,000 proteoliposomes were analyzed by flow cytometry monitoring fluorescein and ATTO655 intensities. […] (C, D) Slowdown of multiple-turnover substrate transport. […] Transported peptides per liposomes were evaluated and corrected by ADP background levels as described in (B). Transport kinetics were fitted monoexponentially. […] (E) Two consecutive transport cycles. […] Transported peptides per liposome were evaluated as described in (B) and corrected by background levels in the presence of ADP. […] Figure 6-source data 1. Source data for Figure 6. Figure 6-figure supplement 1. Linear regression of quantitative flow cytometry analysis. (A) Gating strategy. Liposomes were selected according to side and forward scatter areas. Single liposomes were gated based on the height of forward scatter correlated to the area of forward scatter. […] Detergent was removed, and liposomes were extensively washed by centrifugation. […] Equal concentrations of fluorescein served as loading control (right). (C) Linear regression. […] Mean values ± SD (n = 3) are shown. Figure 6-figure supplement 1-source data 1. Source Data for Figure 6-figure supplement 1. [drawing 5] […] To confirm the conformational arrest of wild-type TmrAB by CP13^F and the slow turnover in the presence of CP14^F, we examined two successive cycles of conformational transitions by flow cytometry. […] Both steps were repeated to yield two consecutive cycles of conformational transitions. […] Taken together, the macrocyclic peptides CP13 and CP14 stabilize a pre-hydrolysis state, thus allowing a single-turnover translocation along the IF-to-OF switch. […] Transport reactions were stopped by adding EDTA (10 mM). […] For regression analysis, liposomes were loaded with increasing amounts of peptides to convert the fluorescence intensities into the number of peptides per liposome ([Stefan et al., 2020]). […] Equal amounts of carboxyfluorescein (Sigma-Aldrich) served as loading control. Detergent was removed by adding SM-2 Bio-beads (Bio-Rad) as detailed above. Liposomes were harvested for 30 min at 270,000 g and washed three times by centrifugation. Generally, 20,000-100,000 proteoliposomes were selected according to sideward and forward scatter areas. Single events were selected based on the height of forward scatter plotted against the area of forward scatter. […] Data represent mean ± SD from three experiments.

[2] = time 5 min (after first 5 min at 45°C)
[3] = time 65 min (after 60 min at 4°C)
[4] = time 70 min (after second 5 min at 45°C)
[5] = time 130 min (after second 60 min at 4°C)

Structure (SMILES) | ATP hydrolysis (TmrAB in liposomes) | Peptide transport in two successive IF-to-OF cycles [1] | Transported C4^ATTO655, Peptides/liposome ([1]; CP^F 1 µM, 5 min 45°C) [Peptides/liposome] | Peptides/liposome, two consecutive transport cycles ([1]; time 0 min) [Peptides/liposome] | Peptides/liposome, two consecutive transport cycles [1, 2] [Peptides/liposome] | Peptides/liposome, two consecutive transport cycles [1, 3] [Peptides/liposome] | Peptides/liposome, two consecutive transport cycles [1, 4] [Peptides/liposome] | Peptides/liposome, two consecutive transport cycles [1, 5] [Peptides/liposome] | Effect on C4^ATTO655 peptide translocation ([1]; CP^F 1 µM, 5 min 45°C) | further results
CC(C)[C@@H]1NC(=O)[C@H](Cc2ccccc2)NC(=O)[C@@H]2CCCN2C(=O)[C@H](CC(N)=O)NC(=O)[C@H](Cc2c[nH]c3ccccc23)NC(=O)[C@H](C(C)C)NC(=O)[C@H](Cc2ccc(O)cc2)NC(=O)[C@H](Cc2ccccc2)NC(=O)[C@@H](Cc2ccc(O)cc2)NC(=O)CSC[C@@H](C(=O)NCC(=O)N[C@@H](CO)C(=O)NCCC(=O)NCCC(=O)N[C@@H](CCCNC(=N)N)C(=O)N[C@@H](CCCCNC(=O)c2ccc3c(c2)C(=O)OC32c3ccc(O)cc3Oc3cc(O)ccc32)C(N)=O)NC(=O)[C@H](CCCCN)NC(=O)[C@H](Cc2ccccc2)NC1=O [CP14] ({CH2CO}-[dY]FYVWNPFVFKCGS[βAla][βAla]RK(5FAM)-NH2; thioether N-12; C-terminus assumed) | 0.39 mmol Pi (g*min)^-1 | peptide transport was detected in both IF-to-OF switches | 38.81 | 0.00 | 36.27 | 37.68 | 44.92 | 48.07 |  | Peptides/liposome, time course ([1]; 1 min at 45°C, CP^F 1 µM): 0.03 Peptides/liposome; Mean fluorescence intensity * 10^3, time course ([1]; 1 min at 45°C, CP^F 1 µM, without CP 2.29): 0.00 * 10^3; Peptides/liposome, time course ([1]; 3 min at 45°C, CP^F 1 µM): 6.21 Peptides/liposome; Mean fluorescence intensity * 10^3, time course ([1]; 3 min at 45°C, CP^F 1 µM, without CP 10.49): 0.43 * 10^3; Peptides/liposome, time course ([1]; 5 min at 45°C, CP^F 1 µM): 14.91 Peptides/liposome; Mean fluorescence intensity * 10^3, time course ([1]; 5 min at 45°C, CP^F 1 µM, without CP 18.11): 1.02 * 10^3; Peptides/liposome, time course ([1]; 10 min at 45°C, CP^F 1 µM): 24.30 Peptides/liposome; Mean fluorescence intensity * 10^3, time course ([1]; 10 min at 45°C, CP^F 1 µM, without CP 30.27): 1.67 * 10^3; Peptides/liposome, time course ([1]; 20 min at 45°C, CP^F 1 µM): 38.29 Peptides/liposome; Mean fluorescence intensity * 10^3, time course ([1]; 20 min at 45°C, CP^F 1 µM, without CP 40.72): 2.63 * 10^3; Peptides/liposome, time course ([1]; 40 min at 45°C, CP^F 1 µM): 48.57 Peptides/liposome; Mean fluorescence intensity * 10^3, time course ([1]; 40 min at 45°C, CP^F 1 µM, without CP 51.44): 3.34 * 10^3; C4^ATTO655 peptides per liposome transported along a single IF-to-OF switch ([1]; CP^F 1 µM, 5 min 45°C, ~30 transport-competent TmrAB per liposome): ~ 30 peptides per liposome; Peptide transport rate compared to control without CP^Fs ([1]; period of 40 min at 45°C): drastically reduced the peptide transport rate; Turnover of wild-type TmrAB over long-term incubation ([1]; period of 40 min at 45°C): slow turnover
CC[C@H](C)[C@@H]1NC(=O)[C@H]([C@@H](C)O)NC(=O)[C@H](CC(C)C)NC(=O)[C@H](Cc2c[nH]c3ccccc23)NC(=O)[C@H](Cc2ccccc2)NC(=O)[C@H](CC(N)=O)NC(=O)[C@H](CCC(=O)O)NC(=O)[C@H](CC(C)C)NC(=O)[C@H](CS)NC(=O)[C@H](Cc2c[nH]cn2)NC(=O)[C@H](CO)NC(=O)[C@@H](Cc2ccc(O)cc2)NC(=O)CSC[C@@H](C(=O)NCC(=O)N[C@@H](CO)C(=O)NCCC(=O)NCCC(=O)N[C@@H](CCCNC(=N)N)C(=O)N[C@@H](CCCCNC(=O)c2ccc3c(c2)C(=O)OC32c3ccc(O)cc3Oc3cc(O)ccc32)C(N)=O)NC(=O)[C@H](CC(C)C)NC1=O [CP6] ({CH2CO}-[dY]SHCLENFWLTILCGS[βAla][βAla]RK(5FAM)-NH2; thioether N-14) | 0.54 mmol Pi (g*min)^-1 | peptide translocation was completely abrogated | 4.74 | 0.00 | 0.17 | 0.01 | 1.93 | 1.54 | completely prevented C4^ATTO655 peptide translocation | 
CC(C)C[C@@H]1NC(=O)[C@H](Cc2ccccc2)NC(=O)CNC(=O)[C@H](CO)NC(=O)[C@H](Cc2ccccc2)NC(=O)[C@H](CC(=O)O)NC(=O)[C@@H]2CCCN2C(=O)[C@H]([C@@H](C)O)NC(=O)[C@@H](Cc2ccc(O)cc2)NC(=O)CSC[C@@H](C(=O)NCC(=O)N[C@@H](CO)C(=O)NCCC(=O)NCCC(=O)N[C@@H](CCCNC(=N)N)C(=O)N[C@@H](CCCCNC(=O)c2ccc3c(c2)C(=O)OC32c3ccc(O)cc3Oc3cc(O)ccc32)C(N)=O)NC(=O)[C@H](C)NC(=O)[C@H](CC(N)=O)NC(=O)[C@H](CCCNC(=N)N)NC(=O)[C@H](CC(C)C)NC(=O)[C@H](Cc2ccccc2)NC(=O)[C@H](C)NC1=O [CP12] ({CH2CO}-[dY]TPDFSGFLAFLRNACGS[βAla][βAla]RK(5FAM)-NH2; thioether N-16) | 0.37 mmol Pi (g*min)^-1 | peptide translocation was completely abrogated | 4.93 | 0.00 | 1.11 | 1.17 | 1.70 | 1.01 | completely prevented C4^ATTO655 peptide translocation | 
